Data published in patent US5449661A, “Angiotensin converting enzyme inhibitor and method for preparing same” (The Calpis Food Industry Co., Ltd., priority 1992, dated 1995).
Residues, ends and D or L forms follow the SMILES beside them.

biological target: T1, angiotensin converting enzyme (ACE) (Oryctolagus cuniculus, UniProt P12822); assay: ACE inhibiting activity (method of Cushman and Cheung, Hip-His-Leu substrate); details: read-out: IC50 (μM), ACE inhibiting activity of synthesized peptides; chemically synthesized peptides; measured in the same way as in Example 1
T1 sequence (P12822 34-1310): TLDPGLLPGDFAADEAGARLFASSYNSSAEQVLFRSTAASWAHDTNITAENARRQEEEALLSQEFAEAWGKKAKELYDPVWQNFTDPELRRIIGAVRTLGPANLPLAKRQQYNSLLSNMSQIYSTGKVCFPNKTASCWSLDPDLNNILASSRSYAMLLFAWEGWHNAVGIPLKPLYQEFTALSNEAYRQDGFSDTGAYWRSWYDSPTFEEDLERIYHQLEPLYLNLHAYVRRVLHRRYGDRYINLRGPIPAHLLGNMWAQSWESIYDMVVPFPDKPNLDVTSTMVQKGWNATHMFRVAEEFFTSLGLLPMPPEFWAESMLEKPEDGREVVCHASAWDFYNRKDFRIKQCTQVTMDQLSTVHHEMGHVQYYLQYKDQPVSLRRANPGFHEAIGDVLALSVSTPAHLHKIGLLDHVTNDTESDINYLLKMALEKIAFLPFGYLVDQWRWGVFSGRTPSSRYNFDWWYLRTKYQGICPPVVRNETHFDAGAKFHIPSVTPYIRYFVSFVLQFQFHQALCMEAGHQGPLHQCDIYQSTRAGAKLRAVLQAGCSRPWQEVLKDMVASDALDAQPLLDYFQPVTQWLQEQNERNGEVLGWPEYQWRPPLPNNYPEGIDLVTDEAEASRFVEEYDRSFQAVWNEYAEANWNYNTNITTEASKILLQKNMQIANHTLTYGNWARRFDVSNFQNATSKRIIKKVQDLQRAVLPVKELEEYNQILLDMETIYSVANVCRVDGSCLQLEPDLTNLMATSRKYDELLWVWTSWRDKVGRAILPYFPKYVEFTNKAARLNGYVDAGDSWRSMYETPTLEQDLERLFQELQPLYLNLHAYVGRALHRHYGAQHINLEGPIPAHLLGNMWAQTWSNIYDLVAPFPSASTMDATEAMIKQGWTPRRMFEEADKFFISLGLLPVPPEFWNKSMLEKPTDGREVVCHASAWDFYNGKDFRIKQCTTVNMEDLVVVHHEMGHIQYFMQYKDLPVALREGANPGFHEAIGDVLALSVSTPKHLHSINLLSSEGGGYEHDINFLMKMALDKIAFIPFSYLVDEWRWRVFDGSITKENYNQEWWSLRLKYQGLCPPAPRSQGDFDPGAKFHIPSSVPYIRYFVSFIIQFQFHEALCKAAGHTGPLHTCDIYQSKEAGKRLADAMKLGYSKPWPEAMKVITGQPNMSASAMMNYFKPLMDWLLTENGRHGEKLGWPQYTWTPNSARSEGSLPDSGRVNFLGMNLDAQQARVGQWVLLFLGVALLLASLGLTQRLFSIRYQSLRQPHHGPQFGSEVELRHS
Protocol: 0.2 ml of hippuryl histidyl leucine (Hip-His-Leu, manufactured by SIGMA CHEMICAL CO.), adjusted to 5 mM with a 0.1M boric acid buffer containing 0.3M NaCl, pH 8.3, and 0.02 ml of an aqueous enzyme solution (ACE, 0.1 u/ml, manufactured by SIGMA CHEMICAL CO.) were added in this order as a substrate to the contents of each test tube, and reaction was carried out at 37° C. for 30 minutes. 0.25 ml of 1N hydrochloric acid was subsequently added to the contents of each test tube. After termination of the reaction, 1.7 ml of ethyl acetate was added to the contents of each tube, and agitation was continued for 20 seconds. After centrifugal separation at 3000 rpm for 10 minutes, and recovery of 1.4 ml of an ethyl acetate layer, the solvent was removed by heating at 120° for 40 minutes. After removing the solvent and adding 1 ml of distilled water, the absorption at 228 nm of the extracted hippuric acid was measured and adopted as the ACE inhibiting activity. The inhibiting ratio was calculated by the following equation:
Inhibiting Percentage=[(A-B)/(A-C)]×100(%)

| SMILES | IC50 |
| --- | --- |
| CC(C)C[C@H](N)C(=O)N[C@H](C(=O)N[C@@H](CCC(N)=O)C(=O)N[C@H](C(=O)N1CCC[C@H]1C(=O)N[C@H](C(=O)N[C@H](C(=O)N[C@H](C(=O)N1CCC[C@H]1C(=O)N1CCC[C@H]1C(=O)O)C(C)C)C(C)C)C(C)C)[C@@H](C)O)[C@@H](C)O (H-LTQTPVVVPP-OH) | 160 µM |
| CC(C)C[C@H](N)C(=O)N[C@H](C(=O)N1CCC[C@H]1C(=O)N1CCC[C@H]1C(=O)O)C(C)C [Leu--Val--Pro--Pro, Leu-Val-Pro-Pro] (H-LVPP-OH) | 125 µM |
| CC(C)[C@H](NC(=O)[C@@H]1CCCN1)C(=O)N[C@H](C(=O)N[C@H](C(=O)N1CCC[C@H]1C(=O)N1CCC[C@H]1C(=O)O)C(C)C)C(C)C [Pro--Val--Val--Val--Pro--Pro, Pro-Val-Val-Val-Pro-Pro] (H-PVVVPP-OH) | 117 µM |
| CC(C)[C@H](NC(=O)[C@@H]1CCCN1C(=O)[C@H](C)N)C(=O)N1CCC[C@H]1C(=O)N1CCC[C@H]1C(=O)O [Ala--Pro--Val--Pro--Pro, Ala-Pro-Val-Pro-Pro] (H-APVPP-OH) | 627 µM |
| CC(C)[C@H](N)C(=O)N[C@H](C(=O)N[C@H](C(=O)N1CCC[C@H]1C(=O)N1CCC[C@H]1C(=O)O)C(C)C)C(C)C [Val--Val--Val--Pro--Pro, Val-Val-Val-Pro-Pro] (H-VVVPP-OH) | 873 µM |
| CC(C)[C@H](NC(=O)[C@@H]1CCCN1)C(=O)N1CCC[C@H]1C(=O)N1CCC[C@H]1C(=O)O [Pro--Val--Pro--Pro, Pro-Val-Pro-Pro] (H-PVPP-OH) | 181 µM |
| CC(C)C[C@H](NC(=O)[C@@H](N)Cc1ccccc1)C(=O)N[C@H](C(=O)N1CCC[C@H]1C(=O)N1CCC[C@H]1C(=O)O)C(C)C [Phe--Leu--Val--Pro--Pro, Phe-Leu-Val-Pro-Pro] (H-FLVPP-OH) | 12 µM |
| CC(C)[C@H](N)C(=O)N[C@H](C(=O)N1CCC[C@H]1C(=O)N1CCC[C@H]1C(=O)O)C(C)C [Val--Val--Pro--Pro, Val-Val-Pro-Pro] (H-VVPP-OH) | 285 µM |
